Experimental data as given in patent US9925154B2 (Seattle Children's Hospital, priority 2011, dated 2018).
Counter-ions that a name gives are not always drawn. Like-named read-outs stand apart in the source and are kept apart here.

Experiments:
[1] = system: unilateral ureteral obstruction (UUO) kidneys; assay: IP cysteamine HCL dose trial in UUO mice; assay type: in vivo
Procedure: Unilateral ureteral obstruction (UUO) was performed on ten mice.

[2] = Plasma cysteamine levels by mass spectrometry; assay type: in vivo, mice; conditions: for plasma levels of cysteamine at the time of sacrifice: day 14 after UUO
Procedure: Plasma cysteamine levels were measured by mass spectrometry by the reference laboratory at UC San Diego that also runs most of the human samples for the North American patients with cystinosis.
Plasma levels were taken every hour during the evening (for 12 hours) and every four hours during the day (n=4/group).

[3] = system: F4/80-positive interstitial macrophages; assay: F4/80 confocal staining of UUO kidneys; assay type: in vivo, mice
Procedure: UUO was performed on 8 week-old wild-type male mice on a C57BL6 background. […] The kidneys (obstructed and contralateral) were harvested at day land day 14 after UUO. Macrophage accumulation was analyzed by confocal staining using F4/80 rat anti-mouse macrophage monoclonal antibody (Serotec Ltd., Oxford, UK).

[4] = system: IL-1β, TNF-α, IL-6, Gal-3, and Endo180; assay: Real-time qPCR of pro-inflammatory and pro-fibrotic cytokines in UUO kidneys; assay type: in vivo; conditions: day 14 after UUO, vs control mice
Procedure: (§1) The expression patterns of pro-inflammatory and pro-fibrotic cytokines were investigated at day 7 and day 14 in total kidney homogenate by semi-quantitative real time qPCR.
(§2) UUO was performed on 8 week-old wild-type male mice on a C57BL6 background. […] The kidneys (obstructed and contralateral) were harvested at day land day 14 after UUO.

procollagen III = assay: ECM gene mRNA by real-time qPCR in UUO kidneys: procollagen III; assay type: in vivo, mice; conditions: day 7 after UUO
Procedure: (§3) Unilateral ureteral obstruction (UUO) was performed on 8 week-old wild-type male mice on a C57BL6 background. […] The kidneys were harvested at 3, 7, and 14 days after UUO.
(§4) Extracellular matrix (ECM) gene mRNA levels were measured by semiquantitative real-time PCR (qPCR) in both doses at 3, 7 and 14 days after UUO. Real-time qPCR) was performed with specific primers for collagen 1A1, collagen 3A1, fibronectin, and other profibrotic and proinflammatory genes using standard protocols. Semi-quantitative real-time qPCR data was analyzed with REST software using both GAPDH and 18S as reference genes. Reactions were run in triplicate, and mean threshold crossing cycle (Ct) values were compared. ‡P<0.05; †P<0.01.

UUO kidneys = assay: Total kidney collagen (hydroxyproline) in UUO kidneys; assay type: in vivo, mice; conditions: for reduction of total kidney collagen content: day 14 after UUO
Procedure: (§5) Cysteamine bitartrate, the bitartrate salt of cysteamine is known commercially as Cystagon®. […] Both doses were well-tolerated and measured serum levels of cysteamine were appropriate.
Unilateral ureteral obstruction (UUO) was performed on 8 week-old wild-type male mice on a C57BL6 background. […] Groups of mice (n=8-10 mice per group at each time-point) were studied 3, 7, 14, and 21 days after the onset of chronic injury induced by UUO.
Total collagen was measured as hydroxyproline concentration in hydrolysates extracted from frozen normal (unobstructed) and UUO kidney samples. […] Collagen reduction was confirmed by sirius red staining

E-cadherin = E-cadherin immunoblotting in UUO mice; assay type: in vivo; conditions: treated UUO mice
From the text: as §5

TGF-β receptor 1 = assay: Real-time PCR of profibrotic cytokines in UUO kidneys: TGF-β receptor; assay type: in vivo; conditions: vs control mice; for down-regulation of TGF-β receptor mRNA levels: day 14 after UUO
Procedure: as §1, §2
(§6) Semi-quantitative real-time PCR was performed with specific primers to TGF-β and TGF-β receptor 1 genes using iCycler (Bio-Rad) with standard protocol. […] Semi-quantitative real-time PCR data was analyzed with REST software using both GAPDH and 18S as reference genes. Each sample was performed in triplicate. (‡P<0.05, †P<0.01).

[5] = system: unilateral ureteral obstruction (UUO) kidneys; conditions: for severity of fibrosis as measured by total collagen content: day 14 after UUO
Procedure: Mice were sacrificed at day 14 after UUO and total renal collagen levels (μg hydroxyproline/mg) were measured. Total collagen in the tissue was calculated on the assumption that collagen contains 12.7% hydroxyproline by weight.

procollagen I = assay: ECM gene mRNA by real-time qPCR in UUO kidneys: procollagen I; assay type: in vivo, mice; conditions: 600 mg/kg
Procedure: as §3, §4

TGF-β = assay: Real-time PCR of profibrotic cytokines in UUO kidneys: TGF-β; assay type: in vivo; conditions: vs control mice; for down-regulation of TGF-β mRNA levels: day 14 after UUO
Procedure: as §1, §2, §6

[6] = system: α-SMA-positive myofibroblasts; assay: α-SMA immunoperoxidase staining of UUO kidneys; assay type: in vivo, mice
Procedure: Myofibroblast activation and accumulation was examined after UUO by measuring the expression of α-smooth muscle actin (α-SMA), a marker of myofibroblast activation. Interstitial myofibroblasts are the primary matrix-producing cell in response to kidney injury. […] Cell proliferation was measured by counting BrdU positive cells using a monoclonal anti-BrdU antibody. Myofibroblast recruitment was quantified after immunoperoxidase staining using peroxidase-conjugated murine anti-human α-smooth muscle actin (α-SMA) 1A4 monoclonal antibody (Sigma).

fibronectin = assay: ECM gene mRNA by real-time qPCR in UUO kidneys: fibronectin; assay type: in vivo, mice; conditions: day 7 after UUO
Procedure: as §3, §4

Nox2, Nox4, and SOD1 = assay: Real-time qPCR of oxidant and anti-oxidant genes in UUO mice; assay type: in vivo; conditions: day 7 and day 14, qPCR (data not shown)
From the text: In addition, there was no difference between cysteamine-treated and control mice in the modulation of the expression of the oxidant and anti-oxidant genes Nox2, Nox4, and SOD1 as determined by semi-quantitative real time qPCR at day 7 and day 14 (data not shown).

[7] = system: total kidney thiol content; assay: Total kidney thiol content in UUO mice; assay type: in vivo
Procedure: In order to investigate the importance of total redox status during fibrotic injury, total kidney thiol content was measured as an indicator of antioxidant status.
UUO was performed on 8 week-old wild-type male mice on a C57BL6 background (n=5/group). […] The kidneys (obstructed and contralateral) were harvested at days 7, 14 and 21 after UUO. Tissue from contralateral and UUO kidneys was processed in antioxidant buffer and analyzed for total thiol content fluorometrically and normalized to protein content using a Measure-iT™ Thiol Assay Kit (Invitrogen).

TGase = molecular target: T1, TGase (Homo sapiens, UniProt P21980); conditions: in vitro, Jeon et al. 2004; cited from earlier work
T1 sequence (P21980 1-687): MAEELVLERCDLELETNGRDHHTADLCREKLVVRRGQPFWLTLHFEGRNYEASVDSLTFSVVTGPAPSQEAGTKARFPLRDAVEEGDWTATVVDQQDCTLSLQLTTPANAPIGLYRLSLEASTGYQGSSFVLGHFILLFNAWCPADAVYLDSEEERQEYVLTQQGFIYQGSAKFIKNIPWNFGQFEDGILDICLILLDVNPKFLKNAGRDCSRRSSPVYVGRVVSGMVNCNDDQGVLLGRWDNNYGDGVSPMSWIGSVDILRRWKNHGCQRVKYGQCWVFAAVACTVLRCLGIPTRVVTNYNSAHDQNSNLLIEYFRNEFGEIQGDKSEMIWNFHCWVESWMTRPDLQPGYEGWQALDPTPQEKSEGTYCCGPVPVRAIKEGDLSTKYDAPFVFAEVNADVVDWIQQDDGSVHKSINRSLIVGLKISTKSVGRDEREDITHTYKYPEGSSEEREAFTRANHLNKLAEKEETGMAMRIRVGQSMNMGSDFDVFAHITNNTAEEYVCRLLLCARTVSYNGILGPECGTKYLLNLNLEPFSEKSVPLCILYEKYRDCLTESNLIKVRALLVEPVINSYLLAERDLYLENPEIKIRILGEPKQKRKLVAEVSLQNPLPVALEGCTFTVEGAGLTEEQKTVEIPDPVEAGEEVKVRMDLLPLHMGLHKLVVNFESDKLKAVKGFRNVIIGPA

[8] = delivery to the small intestine; cited from earlier work
[9] = system: Transglutaminase 2 (TGase2); assay: TGase2 protein expression in UUO kidneys; assay type: in vivo, mice; conditions: 400 mg/kg or 600 mg/kg
From the text: Transglutaminases (TGases) are a family of enzymes that catalyze the transamidation reaction between the γ-carboxyamide of a peptide-bound glutamine residue and the ϵ-amino group of a peptide-bound lysine residue or the primary amine group of a polyamine via forming a thioester acylenzyme intermediate at the active site cysteine. Thus, TGase activity produces cross-linked proteins or amine conjugates. One type of TGase, TGase2, acts to cross link ECM proteins, particularly Collagen III. Cross linking renders proteins resistant to degradation, which is thought to result in accelerated matrix deposition.

[10] = system: intracellular cystine (circulating white blood cells); conditions: cited from earlier work
[11] = high doses (600 mg/kg), day 7 after UUO

## NCCS [cysteamine HCL]
[1]; 400 mg/kg dose group, daily IP, day 14 after UUO, compared to placebo (PBS)
  total renal collagen levels (hydroxyproline): decreased total collagen levels
[1]; IP, high dose levels
  deaths: several mice died
[1]; mouse, in vivo, ip
  adverse signs observed: Possible seizures and somnolence

## NCCS [cysteamine bitartrate]
[2]; read-out: Cmax levels of cysteamine, C57BL/6 mice, 600 mg/kg in drinking water for 3 days
  Cmax: 15 to 20 µM

## NCCS.O=C(O)C(O)C(O)C(=O)O (centres unmarked) [cysteamine bitartrate]
[3]; 600 mg/kg/day, day 14 after UUO
  reduction in interstitial macrophage infiltration: 34%
[3]; day 7 after UUO
  interstitial macrophage infiltration, treated vs control: No difference
[4]
  expression levels of IL-1β, TNF-α, IL-6, Gal-3, and Endo180: No difference
Procollagen III; 400 mg/kg
  reduction in procollagen III mRNA levels: ~40%
Procollagen III; 600 mg/kg
  reduction in procollagen III mRNA levels: ~60%
UUO kidneys; 400 mg/kg/day and 600 mg/kg/day, UUO mice
  tolerability: well-tolerated
UUO kidneys; 400 mg/kg/day in drinking water, vs untreated
  reduction of total kidney collagen content: 21%
UUO kidneys; 600 mg/kg/day in drinking water, vs untreated
  reduction of total kidney collagen content: 21%
UUO kidneys; 600 mg/kg/day in drinking water, day 21 after UUO, vs untreated
  decrease in collagen levels: 25%
UUO kidneys; UUO kidneys
  collagen reduction by sirius red staining: confirmed
UUO kidneys; both doses, 400 and 600 mg/kg/day, by day 14, P<0.01
  kidney collagen levels: statistically significant reductions
UUO kidneys; day 7 after UUO
  total collagen, treated vs control: no difference
E-cadherin
  increase of E-cadherin levels (marker of tubular damage): 1.3 fold
TGF-β receptor 1; 400 mg/kg
  down-regulation of TGF-β receptor mRNA levels: 47%
TGF-β receptor 1; 600 mg/kg
  down-regulation of TGF-β receptor mRNA levels: 64%
TGF-β receptor 1; [11]
  up-regulation of TGF-β receptor expression: approximately 60%
[2]; 400 mg/kg in drinking water
  plasma levels of cysteamine at the time of sacrifice: 0.81±0.091 Ilmole/L
[2]; 600 mg/kg in drinking water
  plasma levels of cysteamine at the time of sacrifice: 1.04±0.151 Ilmole/L
[2]; C57BL/6 mice, 600 mg/kg in drinking water for 3 days
  serum levels of cysteamine, night vs day: higher serum levels of cysteamine are achieved at night and lower levels during the day
[5]; 400 mg/kg in drinking water
  severity of fibrosis as measured by total collagen content: attenuated
[5]; 600 mg/kg in drinking water
  severity of fibrosis as measured by total collagen content: attenuated
[5]; 200, 400, 600 mg/kg in drinking water, 14 days, even at high doses
  deaths or abnormal behavior: No deaths or abnormal behavior was observed
Procollagen I; day 7 after UUO
  reduction in procollagen I mRNA levels: ~60%
Procollagen I; day 14 after UUO
  procollagen I mRNA levels lower: 56%
TGF-β; 400 mg/kg
  down-regulation of TGF-β mRNA levels: 47%
TGF-β; 600 mg/kg
  down-regulation of TGF-β mRNA levels: 64%
TGF-β; [11]
  up-regulation of TGF-β expression: approximately 60%
[6]; 400 mg/kg, day 14 after UUO
  reduction in α-SMA-positive myofibroblasts: ~30%
[6]; 600 mg/kg, day 14 after UUO
  reduction in α-SMA-positive myofibroblasts: ~30%
fibronectin; 400 mg/kg
  reduction in kidney fibronectin mRNA levels: ~40%
fibronectin; 600 mg/kg
  reduction in fibronectin mRNA levels: ~60%

## NCCS [cysteamine, β-mercaptoethylamine]
Nox2, Nox4, and SOD1
  expression of oxidant and anti-oxidant genes Nox2, Nox4, and SOD1, treated vs control: no difference
[7]; 400 mg/kg or 600 mg/kg, day 7 after UUO
  total kidney thiol content in UUO kidney: remained at levels close to that of the contralateral kidney
[7]; high dose (600 mg/kg), compared to controls
  increase of total kidney thiol content: 36%
TGase
  TGase inhibition: less potent inhibitor of TGase than both cystamine and primary amines
[8]
  Cmax: increases Cmax
  area under the curve (AUC): increases area under the curve (AUC)
  time to decrease in leukocyte cystine: within an hour
[9]
  TGase2 protein expression in UUO kidneys: no difference in TGase2 protein expression
[6]; 400 mg/kg, day 7 after UUO
  reduction in α-SMA-positive myofibroblasts: 38%
[6]; 400 mg/kg, day 14 after UUO
  reduction in α-SMA-positive myofibroblasts: 24%
[6]; 600 mg/kg, day 7 after UUO
  reduction in α-SMA-positive myofibroblasts: 47%
[6]; 600 mg/kg, day 14 after UUO
  reduction in α-SMA-positive myofibroblasts: 33%
[10]; children with cystinosis, enteral administration (Dohil et al.)
  lowering of leukocyte cystine levels: prolonged efficacy in the lowering of leukocyte cystine levels
[10]; subjects with cystinosis, taken regularly
  progression to kidney failure/transplantation: reduce the rate of progression to kidney failure/transplantation
[10]; taken regularly, measured in circulating white blood cells
  depletion of intracellular cystine: up to 90%
